# The source made the active and inactive calls.
# What was measured:
# Bcl-2-like protein 10 = Bcl-2-like protein 10 (Homo sapiens, UniProt Q9HD36); assay: Bcl-B/TR3 peptide binding disruption – biochemical, fluorescence polarization, FITC-TR3 peptide, selectivity assay for Bfl-1 inhibitor project, primary screen (AID 748);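 also: fluorescence polarization from a fluorescein-labelled TR3 peptide binding purified Bcl-B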
# X-box-binding protein 1 = X-box-binding protein 1 (Homo sapiens, UniProt P17861); format: functional, Cricetulus griseus;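 also: confirmatory dose-response counter-screen serving a CHOP assay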
# Chain of X-box-binding protein 1 (P17861 whole entry): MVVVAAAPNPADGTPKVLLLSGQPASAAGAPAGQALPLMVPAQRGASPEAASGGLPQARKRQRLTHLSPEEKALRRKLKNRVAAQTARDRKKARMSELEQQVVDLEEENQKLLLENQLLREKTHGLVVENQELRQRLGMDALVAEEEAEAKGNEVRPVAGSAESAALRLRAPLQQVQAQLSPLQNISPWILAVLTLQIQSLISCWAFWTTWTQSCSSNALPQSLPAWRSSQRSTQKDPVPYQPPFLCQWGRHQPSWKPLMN
# [1] = molecular target: Neurotensin receptor type 1 (Homo sapiens, UniProt P30989); format: functional;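 also: Image-based confirmatory dose-response assay measuring agonist activity at NTR1; NTR1-expressing U2OS osteosarcoma cells imaged for beta-arrestin GFP spot formation; agonist potency where compounds increase beta-arrestin recruitment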
# Chain of Neurotensin receptor type 1 (P30989 whole entry): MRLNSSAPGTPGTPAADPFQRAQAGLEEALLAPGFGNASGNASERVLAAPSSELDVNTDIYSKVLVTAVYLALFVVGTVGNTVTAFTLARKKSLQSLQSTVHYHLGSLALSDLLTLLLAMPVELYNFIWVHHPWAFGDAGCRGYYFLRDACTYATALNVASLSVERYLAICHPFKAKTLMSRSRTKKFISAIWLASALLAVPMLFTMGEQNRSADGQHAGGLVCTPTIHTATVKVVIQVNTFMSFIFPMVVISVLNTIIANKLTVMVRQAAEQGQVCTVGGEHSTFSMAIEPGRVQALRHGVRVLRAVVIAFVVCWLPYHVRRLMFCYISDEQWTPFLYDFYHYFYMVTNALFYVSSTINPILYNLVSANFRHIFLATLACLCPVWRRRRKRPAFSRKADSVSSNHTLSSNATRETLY
# [2] = molecular target: T1, Microphthalmia-associated transcription factor (Homo sapiens, UniProt O75030); assay: reducers of TRPM1 reporter luminescence, concentration series – cell-based, SK-MEL-5, cherry-picked, set 3, MITF inhibitor project, dose response (AID 493073); format: functional;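 also: SK-MEL-5 melanoma cells with luciferase driven by the MITF target TRPM1 promoter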
# T1 sequence (O75030 whole entry): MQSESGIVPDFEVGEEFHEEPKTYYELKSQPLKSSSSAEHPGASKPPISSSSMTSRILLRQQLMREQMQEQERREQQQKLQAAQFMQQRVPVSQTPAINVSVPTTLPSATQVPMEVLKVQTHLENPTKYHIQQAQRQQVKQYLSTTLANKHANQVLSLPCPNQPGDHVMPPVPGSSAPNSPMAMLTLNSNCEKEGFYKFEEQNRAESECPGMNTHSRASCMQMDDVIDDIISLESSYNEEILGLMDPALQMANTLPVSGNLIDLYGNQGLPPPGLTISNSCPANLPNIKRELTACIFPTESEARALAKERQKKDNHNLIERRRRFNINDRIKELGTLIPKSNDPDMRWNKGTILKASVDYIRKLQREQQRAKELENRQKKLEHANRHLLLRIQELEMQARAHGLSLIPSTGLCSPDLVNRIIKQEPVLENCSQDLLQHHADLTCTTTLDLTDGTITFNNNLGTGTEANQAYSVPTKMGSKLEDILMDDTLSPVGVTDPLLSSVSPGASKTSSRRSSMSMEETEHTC
# [3] = molecular target: Heat shock protein HSP 90-alpha (Homo sapiens, UniProt P07900); format: functional, organism-based
# Melanocortin receptor 4 = Melanocortin receptor 4 (Homo sapiens, UniProt P32245); assay: inhibitors of MC4R cAMP signaling – cell-based, TR-FRET, biased antagonists, dose response (AID 602298); format: functional;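 also: antagonist potency against agonist-stimulated cAMP production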
# Chain of Melanocortin receptor 4 (P32245 whole entry): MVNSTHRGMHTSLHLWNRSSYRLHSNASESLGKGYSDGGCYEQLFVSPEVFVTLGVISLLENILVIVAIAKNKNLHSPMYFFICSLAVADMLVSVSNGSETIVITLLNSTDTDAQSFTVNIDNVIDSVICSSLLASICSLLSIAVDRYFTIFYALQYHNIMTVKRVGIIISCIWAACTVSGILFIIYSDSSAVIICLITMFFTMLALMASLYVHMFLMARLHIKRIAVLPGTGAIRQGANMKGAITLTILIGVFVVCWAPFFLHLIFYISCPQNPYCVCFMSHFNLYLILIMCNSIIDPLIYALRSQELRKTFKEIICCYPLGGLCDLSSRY
# [4] = molecular target: T2, Rac GTPase-activating protein 1 (Homo sapiens, UniProt Q9H0H5); assay: blockers of MgcRacGAP-driven Rac1 GTP hydrolysis – biochemical, ADP Hunter fluorescence, primary and confirmatory, confirmation (AID 624330); format: functional
# T2 sequence (Q9H0H5 whole entry): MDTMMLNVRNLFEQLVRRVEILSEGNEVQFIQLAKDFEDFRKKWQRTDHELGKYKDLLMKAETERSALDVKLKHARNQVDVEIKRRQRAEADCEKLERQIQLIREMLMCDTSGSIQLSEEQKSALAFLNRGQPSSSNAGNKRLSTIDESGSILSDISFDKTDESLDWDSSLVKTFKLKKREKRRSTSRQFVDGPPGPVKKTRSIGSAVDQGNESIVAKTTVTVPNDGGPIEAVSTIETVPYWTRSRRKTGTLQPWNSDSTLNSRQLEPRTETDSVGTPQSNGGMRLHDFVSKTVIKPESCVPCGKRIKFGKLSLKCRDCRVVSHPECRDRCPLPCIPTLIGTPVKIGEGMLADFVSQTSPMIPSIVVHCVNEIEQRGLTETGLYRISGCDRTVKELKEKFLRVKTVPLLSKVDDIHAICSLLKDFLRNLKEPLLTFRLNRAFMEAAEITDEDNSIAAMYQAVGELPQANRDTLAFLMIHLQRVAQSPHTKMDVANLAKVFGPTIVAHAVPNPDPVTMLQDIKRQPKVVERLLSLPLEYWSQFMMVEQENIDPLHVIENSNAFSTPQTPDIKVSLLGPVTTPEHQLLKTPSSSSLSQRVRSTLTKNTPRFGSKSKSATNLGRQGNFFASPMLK
# [5] = cAMP pathway inhibition in counterscreen cell line – TR-FRET cAMP detection, counter-screen for MC4R biased antagonist project, dose response (AID 602305); format: functional, cell-based;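 also: U2OS cells stimulated with forskolin near its EC80 as the cAMP inducer; potency is for inhibition of forskolin-stimulated cAMP signaling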
# [6] = Luminescence Cell-Based Dose Retest to Confirm Inhibitors of Cancer Stem Cells. [Related pubchem assays (depositor defined):AID2717, AID2721]; format: functional; conditions: Homo sapiens
# [7] = molecular target: T3, Small ubiquitin-related modifier 1 (Homo sapiens, UniProt P63165); assay: SUMO1 protein interaction blockers, potency – biochemical, fluorescence polarization, uHTS hits, dose response (AID 624382); format: functional; conditions: read-out: IC50_Mean
# T3 sequence (P63165 whole entry): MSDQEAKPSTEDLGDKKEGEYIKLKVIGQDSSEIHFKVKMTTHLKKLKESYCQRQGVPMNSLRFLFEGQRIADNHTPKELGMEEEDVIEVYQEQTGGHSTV
# HEK293 [8] = assay: inhibition of NOD1-driven NF-kB reporter – cell-based, luminescence, uHTS, primary screen (AID 1578); format: functional; conditions: Homo sapiens
# [9] = molecular target: T3, Small ubiquitin-related modifier 1; assay: SUMO1 protein-protein binding blockers, potency – biochemical, FRET, dose response (AID 624383); format: functional; conditions: read-out: IC50_Mean
# [10] = molecular target: T4, Nucleotide-binding oligomerization domain-containing protein 1 (Homo sapiens, UniProt Q9Y239); assay: blockers of NOD1 pathway activity – revised, SAR follow-up (AID 2333); format: functional
# T4 sequence (Q9Y239 whole entry): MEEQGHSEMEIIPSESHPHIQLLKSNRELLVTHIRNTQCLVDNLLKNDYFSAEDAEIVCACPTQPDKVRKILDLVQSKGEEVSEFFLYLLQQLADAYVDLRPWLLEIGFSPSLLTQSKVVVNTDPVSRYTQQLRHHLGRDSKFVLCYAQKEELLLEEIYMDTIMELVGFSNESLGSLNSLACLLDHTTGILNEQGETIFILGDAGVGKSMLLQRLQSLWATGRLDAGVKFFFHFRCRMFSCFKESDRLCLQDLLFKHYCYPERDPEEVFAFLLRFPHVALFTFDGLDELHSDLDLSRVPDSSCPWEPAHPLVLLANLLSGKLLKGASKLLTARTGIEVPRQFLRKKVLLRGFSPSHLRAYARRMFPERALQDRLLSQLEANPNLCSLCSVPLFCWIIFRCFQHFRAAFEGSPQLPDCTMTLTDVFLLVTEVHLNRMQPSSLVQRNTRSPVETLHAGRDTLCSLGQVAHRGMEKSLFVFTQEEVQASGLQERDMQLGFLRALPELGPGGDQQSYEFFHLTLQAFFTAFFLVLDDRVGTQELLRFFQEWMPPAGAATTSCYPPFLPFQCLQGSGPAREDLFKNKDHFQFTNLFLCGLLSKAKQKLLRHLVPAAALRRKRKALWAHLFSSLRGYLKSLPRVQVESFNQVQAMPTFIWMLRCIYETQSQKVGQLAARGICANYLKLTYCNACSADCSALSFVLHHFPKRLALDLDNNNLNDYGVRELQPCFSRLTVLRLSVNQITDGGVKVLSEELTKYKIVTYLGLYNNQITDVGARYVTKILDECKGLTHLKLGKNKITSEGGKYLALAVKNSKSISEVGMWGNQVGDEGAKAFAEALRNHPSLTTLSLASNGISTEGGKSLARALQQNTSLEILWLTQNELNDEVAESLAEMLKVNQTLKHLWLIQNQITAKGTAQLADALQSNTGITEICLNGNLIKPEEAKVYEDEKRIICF
# [11] = molecular target: T5, Nucleotide-binding oligomerization domain-containing protein 2 (Homo sapiens, UniProt Q9HC29); assay: inhibition of NOD2-driven NF-kB reporter – cell-based, luminescence, uHTS, HEK293 (AID 1566); format: functional
# T5 sequence (Q9HC29 whole entry, the tested form may be a part): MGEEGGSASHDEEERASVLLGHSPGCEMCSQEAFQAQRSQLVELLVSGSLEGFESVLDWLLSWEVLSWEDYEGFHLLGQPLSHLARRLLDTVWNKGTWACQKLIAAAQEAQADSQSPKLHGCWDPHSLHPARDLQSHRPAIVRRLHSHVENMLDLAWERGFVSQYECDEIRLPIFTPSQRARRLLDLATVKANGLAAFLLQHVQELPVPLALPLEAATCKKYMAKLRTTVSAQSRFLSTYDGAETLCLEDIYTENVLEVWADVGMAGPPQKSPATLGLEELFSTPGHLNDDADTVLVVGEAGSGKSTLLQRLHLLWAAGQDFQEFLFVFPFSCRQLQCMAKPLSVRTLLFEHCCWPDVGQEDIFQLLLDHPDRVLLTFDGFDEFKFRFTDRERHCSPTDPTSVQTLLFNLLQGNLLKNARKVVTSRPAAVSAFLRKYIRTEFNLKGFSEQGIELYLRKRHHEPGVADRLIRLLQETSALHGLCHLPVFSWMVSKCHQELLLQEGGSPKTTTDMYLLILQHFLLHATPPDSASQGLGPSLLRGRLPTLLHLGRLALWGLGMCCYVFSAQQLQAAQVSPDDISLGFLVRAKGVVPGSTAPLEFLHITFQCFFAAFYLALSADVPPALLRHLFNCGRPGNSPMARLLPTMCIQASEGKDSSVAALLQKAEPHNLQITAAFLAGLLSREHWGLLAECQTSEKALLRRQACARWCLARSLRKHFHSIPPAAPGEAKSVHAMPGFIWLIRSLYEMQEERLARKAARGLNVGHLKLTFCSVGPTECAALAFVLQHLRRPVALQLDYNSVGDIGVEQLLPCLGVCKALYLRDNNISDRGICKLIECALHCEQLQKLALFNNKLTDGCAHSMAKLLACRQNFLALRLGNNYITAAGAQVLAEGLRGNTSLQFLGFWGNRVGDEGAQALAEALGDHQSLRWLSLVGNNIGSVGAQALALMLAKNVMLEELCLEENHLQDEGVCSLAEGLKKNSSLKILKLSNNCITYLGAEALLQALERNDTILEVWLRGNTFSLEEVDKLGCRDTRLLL
# HEK293 [12] = assay: NOD2 signaling inhibitors in MDP-stimulated cells, cell-based, uHTS, luminescence (AID 2001); format: functional; conditions: Homo sapiens
# HEK293 [13] = assay: cells; format: functional, cell-based; conditions: Homo sapiens
# Tumor necrosis factor = Tumor necrosis factor (Homo sapiens, UniProt P01375); assay: analog potency on TNFa NF-kB signaling – cell-based, revised, SAR follow-up (AID 2337); format: functional
# Chain of Tumor necrosis factor (P01375 whole entry): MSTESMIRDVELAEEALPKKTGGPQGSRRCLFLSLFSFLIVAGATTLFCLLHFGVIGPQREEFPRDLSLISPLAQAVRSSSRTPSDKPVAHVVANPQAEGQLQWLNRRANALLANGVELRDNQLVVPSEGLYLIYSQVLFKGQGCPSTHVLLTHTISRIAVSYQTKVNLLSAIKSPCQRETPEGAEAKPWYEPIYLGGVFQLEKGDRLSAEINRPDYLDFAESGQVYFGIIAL
# HEK293 [14] = assay: cells; format: functional, cell-based; conditions: Homo sapiens; remark: listed apart in the source
# [15] = molecular target: T5, Nucleotide-binding oligomerization domain-containing protein 2; assay: PubChem AID 2334; format: functional
# HEK293 [16] = assay: cells; conditions: Homo sapiens
# HEK293 [17] = assay: cells; format: functional, cell-based; conditions: Homo sapiens; remark: listed apart in the source
# HEK293 [18] = assay: EBV LMP1 TES2 canonical NF-kB signalling blockers – cell-based, HEK293, luciferase, cherry-pick, dose response (AID 588343); format: functional; conditions: Homo sapiens
# [19] = molecular target: Peroxisome proliferator-activated receptor gamma/Nuclear receptor coactivator 2 (Homo sapiens, UniProt P37231); assay: TR-FRET dose response biochemical High Throughput Screening assay for agonists of the steroid receptor coactivator 2 (SRC-2) recruitment by the peroxisome proliferator-activated receptor gamma (PPAR gamma): non-selective agonists. [Related pubchem assays: 1297, 1032 ]; format: functional
# [20] = molecular target: Peroxisome proliferator-activated receptor gamma/Nuclear receptor coactivator 3 (Homo sapiens, UniProt P37231); assay: TR-FRET dose response biochemical High Throughput Screening assay for agonists of the steroid receptor coactivator 3 (SRC-3) recruitment by the peroxisome proliferator-activated receptor gamma (PPAR gamma): non-selective agonists. [Related pubchem assays: 1301 (Confirmation screen.), 1048 (Primary screen.)]; format: functional
# [21] = molecular target: Peroxisome proliferator-activated receptor gamma/Nuclear receptor coactivator 1 (Homo sapiens, UniProt P37231); assay: TR-FRET dose response biochemical High Throughput Screening assay for agonists of the steroid receptor coactivator 1 (SRC-1) recruitment by the peroxisome proliferator-activated receptor gamma (PPAR gamma): non-selective agonists. [Related pubchem assays (depositor defined):AID1300, AID1808, AID504735, AID631]; format: protein assay
# Chain of Peroxisome proliferator-activated receptor gamma/Nuclear receptor coactivator 1 (P37231 whole entry): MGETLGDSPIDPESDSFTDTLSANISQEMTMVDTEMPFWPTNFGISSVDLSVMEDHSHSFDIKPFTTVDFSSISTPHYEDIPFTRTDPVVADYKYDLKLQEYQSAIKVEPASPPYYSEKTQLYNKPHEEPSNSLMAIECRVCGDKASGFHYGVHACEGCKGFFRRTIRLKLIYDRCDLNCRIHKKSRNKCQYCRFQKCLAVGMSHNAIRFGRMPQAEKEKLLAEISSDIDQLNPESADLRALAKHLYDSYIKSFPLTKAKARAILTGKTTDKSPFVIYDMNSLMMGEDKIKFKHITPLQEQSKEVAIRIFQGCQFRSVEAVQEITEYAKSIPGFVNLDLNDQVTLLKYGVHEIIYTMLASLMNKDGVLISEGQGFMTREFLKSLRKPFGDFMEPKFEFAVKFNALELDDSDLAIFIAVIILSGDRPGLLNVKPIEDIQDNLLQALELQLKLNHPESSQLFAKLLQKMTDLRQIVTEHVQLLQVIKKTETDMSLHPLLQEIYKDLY
# Chain of Peroxisome proliferator-activated receptor gamma/Nuclear receptor coactivator 1 (Q15788 whole entry, further chain): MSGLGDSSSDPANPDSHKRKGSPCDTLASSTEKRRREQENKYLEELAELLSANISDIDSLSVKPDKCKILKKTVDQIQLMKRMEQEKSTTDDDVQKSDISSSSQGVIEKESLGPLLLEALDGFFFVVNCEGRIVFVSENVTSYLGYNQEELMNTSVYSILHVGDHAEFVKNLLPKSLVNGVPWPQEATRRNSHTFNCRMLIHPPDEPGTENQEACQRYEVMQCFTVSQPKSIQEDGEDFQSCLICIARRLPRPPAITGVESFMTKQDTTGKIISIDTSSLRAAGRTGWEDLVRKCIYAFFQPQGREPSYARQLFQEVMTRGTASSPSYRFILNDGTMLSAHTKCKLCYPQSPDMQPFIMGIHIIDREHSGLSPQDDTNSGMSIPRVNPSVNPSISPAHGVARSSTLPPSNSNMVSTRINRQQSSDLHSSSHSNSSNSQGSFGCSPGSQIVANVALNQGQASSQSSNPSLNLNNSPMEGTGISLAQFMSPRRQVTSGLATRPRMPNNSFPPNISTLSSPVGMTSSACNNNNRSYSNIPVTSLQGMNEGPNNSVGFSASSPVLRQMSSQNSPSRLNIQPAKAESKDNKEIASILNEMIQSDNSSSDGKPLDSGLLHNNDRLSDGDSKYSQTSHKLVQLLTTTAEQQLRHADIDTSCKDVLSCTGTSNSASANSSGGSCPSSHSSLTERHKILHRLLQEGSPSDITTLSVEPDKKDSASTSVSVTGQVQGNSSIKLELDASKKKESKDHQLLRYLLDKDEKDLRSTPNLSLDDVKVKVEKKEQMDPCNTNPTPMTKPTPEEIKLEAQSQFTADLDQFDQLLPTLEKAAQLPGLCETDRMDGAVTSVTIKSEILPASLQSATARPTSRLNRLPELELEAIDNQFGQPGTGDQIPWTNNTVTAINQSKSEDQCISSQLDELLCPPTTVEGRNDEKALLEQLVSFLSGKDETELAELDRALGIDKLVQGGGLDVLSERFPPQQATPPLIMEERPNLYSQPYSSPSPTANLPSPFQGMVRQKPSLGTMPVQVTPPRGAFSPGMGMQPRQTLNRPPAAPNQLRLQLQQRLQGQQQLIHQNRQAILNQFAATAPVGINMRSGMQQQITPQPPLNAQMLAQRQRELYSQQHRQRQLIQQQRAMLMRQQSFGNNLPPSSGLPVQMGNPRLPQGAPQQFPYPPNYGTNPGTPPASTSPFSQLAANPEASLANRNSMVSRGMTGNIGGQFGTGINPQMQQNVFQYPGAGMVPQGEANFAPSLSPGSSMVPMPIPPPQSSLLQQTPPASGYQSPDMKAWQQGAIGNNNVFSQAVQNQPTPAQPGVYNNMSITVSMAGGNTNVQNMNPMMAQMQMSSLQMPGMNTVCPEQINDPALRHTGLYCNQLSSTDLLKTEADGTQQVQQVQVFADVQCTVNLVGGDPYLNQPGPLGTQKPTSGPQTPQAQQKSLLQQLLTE
# [22] = HEK-293T cell viability reduction – luminescence, B-cell screen hits, cytotoxicity control for BCR NF-kB inhibitor project, dose response (AID 489021); format: functional, cell-based;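 also: HEK-293T cells carrying an NF-kB luciferase reporter; cells exposed to compound for about 14 hours before viability readout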
# [23] = molecular target: T6, Short transient receptor potential channel 4 (Mus musculus, UniProt Q9QUQ5); assay: block of DAMGO-driven TRPC4 calcium entry – cell-based, HEK293 TRPC4/mu-opioid, Fluo-4 calcium, dose response (AID 434942); format: functional;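 also: potency of inhibitors blocking the TRPC4 calcium response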
# T6 sequence (Q9QUQ5 whole entry): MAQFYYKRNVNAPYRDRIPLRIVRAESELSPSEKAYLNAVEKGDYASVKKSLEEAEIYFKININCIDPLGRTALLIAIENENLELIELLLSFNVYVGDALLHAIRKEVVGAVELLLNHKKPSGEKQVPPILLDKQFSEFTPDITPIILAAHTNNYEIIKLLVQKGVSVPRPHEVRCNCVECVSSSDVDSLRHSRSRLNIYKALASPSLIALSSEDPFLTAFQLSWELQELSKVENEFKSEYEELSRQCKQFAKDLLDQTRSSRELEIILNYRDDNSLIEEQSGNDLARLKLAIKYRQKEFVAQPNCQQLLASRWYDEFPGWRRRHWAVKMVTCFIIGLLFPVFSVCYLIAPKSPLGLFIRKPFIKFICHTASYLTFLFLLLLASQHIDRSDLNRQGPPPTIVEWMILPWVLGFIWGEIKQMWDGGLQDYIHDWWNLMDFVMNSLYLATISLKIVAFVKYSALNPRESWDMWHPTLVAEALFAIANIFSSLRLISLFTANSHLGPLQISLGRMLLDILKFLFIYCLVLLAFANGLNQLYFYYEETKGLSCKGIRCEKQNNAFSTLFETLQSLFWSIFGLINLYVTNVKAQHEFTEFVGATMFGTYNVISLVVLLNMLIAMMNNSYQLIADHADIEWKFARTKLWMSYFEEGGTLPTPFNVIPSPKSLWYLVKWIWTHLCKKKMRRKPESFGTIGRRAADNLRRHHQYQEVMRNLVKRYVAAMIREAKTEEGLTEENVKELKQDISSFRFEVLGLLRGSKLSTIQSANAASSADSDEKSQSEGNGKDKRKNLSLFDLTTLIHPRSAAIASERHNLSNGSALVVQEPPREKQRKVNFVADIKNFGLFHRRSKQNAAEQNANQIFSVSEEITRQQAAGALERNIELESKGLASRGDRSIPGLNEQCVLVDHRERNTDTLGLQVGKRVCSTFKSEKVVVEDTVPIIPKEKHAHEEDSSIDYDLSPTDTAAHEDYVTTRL
# Chain of Bcl-2-like protein 10 (Q9HD36 whole entry): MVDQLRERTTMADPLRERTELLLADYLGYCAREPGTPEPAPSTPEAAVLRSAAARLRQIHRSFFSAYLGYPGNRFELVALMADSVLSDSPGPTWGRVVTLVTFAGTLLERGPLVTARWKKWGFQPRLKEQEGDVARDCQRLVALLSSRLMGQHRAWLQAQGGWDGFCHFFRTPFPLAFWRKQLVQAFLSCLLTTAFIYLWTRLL
smiles,measurement,setting,value
O=C1c2ccccc2C(=O)N1CC#CCN1CCN(C2CCCCC2)CC1,IC50,Bcl-2-like protein 10,> 100 µM (inactive)
CCOc1ccc(-c2[nH]nc(C)c2Oc2ccc(OC)cc2)c(O)c1,Absolute IC50 (XBP1),X-box-binding protein 1,10 µM
CN(C)c1ccc(-n2cccc2/C=C/[N+](=O)[O-])cc1,EC50,[1],9.06 µM (active)
same,AC50,[2],10.2 µM (active)
same,AC50,[3],4.36 µM (active)
same,IC50,Melanocortin receptor 4,12.1 µM (inactive)
same,IC50,[4],43.2 µM (active)
same,IC50,[5],> 64.6 µM (inactive)
same,AC50,[6],2.93 µM (active)
Cc1oc2c(C)c3oc(=O)c(CCC(=O)O)c(C)c3cc2c1-c1ccccc1,IC50,[7],> 66.6 µM (inactive)
same,EC50,HEK293 [8],7.66 µM (active)
same,IC50,[9],13.4 µM (active)
same,IC50,[10],5.43 µM (active)
same,EC50,[11],3.67 µM (active)
same,IC50,HEK293 [12],14.8 µM (inactive)
same,IC50,HEK293 [13],> 20 µM (inactive)
same,IC50,Tumor necrosis factor,5.03 µM (active)
same,IC50,HEK293 [14],> 20 µM (inactive)
same,IC50,[15],5.03 µM (active)
same,IC50,HEK293 [16],> 20 µM (inactive)
same,IC50,HEK293 [17],> 20 µM (inactive)
O=C(Cc1cccc2ccccc12)Nc1ccc(-c2cc3ccccc3oc2=O)cc1,AC50,HEK293 [18],0.587 µM (active)
same,EC50,[19],22 µM (not active)
same,EC50,[20],> 79.4 µM (not active)
same,EC50,[21],22.7 µM (inactive)
same,IC50,[22],> 80 µM (inactive)
Cc1ccc(S(=O)(=O)Nc2cccc(C(=O)NCC(c3ccco3)N3CCCCC3)c2)cc1F (configuration not stated),EC50,[23],0.267 µM (active)

# Source: ChEMBL document CHEMBL1201862, “PubChem BioAssay data set” (2004)
